Measured values reported in PubChem BioAssay AID1963832 (Molecular Pharmacology Branch, DTP, NCI, 2024).

Test system: 885724-159-R-J1-PDC complex spheroid viability
Assay: Anticancer human tumor 885724-159-R-J1-PDC patient-derived pancreatic adenocarcinoma cell line growth inhibition [POLQ]
Settings: for IC50: curve of first compound; for viability, T/C: stronger effect = lower value
How it was run: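 Patient-derived tumour cells were co-cultured with HUVEC and mesenchymal stem cells as multicellular spheroids at 37 °C. They were treated with POLQ inhibitors (novobiocin, ART-558, RP6685) alone or combined with other agents. Top concentrations were at or near clinical Cmax (otherwise 10 microM; SN-38 at 1 microM), decreasing in half-log steps.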

[1] = second compound 0.0316 µM, first compound 0.0316 µM
[2] = second compound 0.0316 µM, first compound 0.1 µM
[3] = second compound 0.0316 µM, first compound 0.316 µM
[4] = second compound 0.0316 µM, first compound 1 µM
[5] = second compound 0.0316 µM, first compound 3.16 µM
[6] = second compound 0.0316 µM, first compound 10 µM
[7] = second compound 0.1 µM, first compound 0.0316 µM
[8] = second compound 0.1 µM, first compound 0.1 µM
[9] = second compound 0.1 µM, first compound 0.316 µM
[10] = second compound 0.1 µM, first compound 1 µM
[11] = second compound 0.1 µM, first compound 3.16 µM
[12] = second compound 0.1 µM, first compound 10 µM
[13] = second compound 0.316 µM, first compound 0.0316 µM
[14] = second compound 0.316 µM, first compound 0.1 µM
[15] = second compound 0.316 µM, first compound 0.316 µM
[16] = second compound 0.316 µM, first compound 1 µM
[17] = second compound 0.316 µM, first compound 3.16 µM
[18] = second compound 0.316 µM, first compound 10 µM
[19] = second compound 1 µM, first compound 0.0316 µM
[20] = second compound 1 µM, first compound 0.1 µM
[21] = second compound 1 µM, first compound 0.316 µM
[22] = second compound 1 µM, first compound 1 µM
[23] = second compound 1 µM, first compound 3.16 µM
[24] = second compound 1 µM, first compound 10 µM
[25] = second compound 3.16 µM, first compound 0.0316 µM
[26] = second compound 3.16 µM, first compound 0.1 µM
[27] = second compound 3.16 µM, first compound 0.316 µM
[28] = second compound 3.16 µM, first compound 1 µM
[29] = second compound 3.16 µM, first compound 3.16 µM
[30] = second compound 3.16 µM, first compound 10 µM
[31] = second compound 10 µM, first compound 0.0316 µM
[32] = second compound 10 µM, first compound 0.1 µM
[33] = second compound 10 µM, first compound 0.316 µM
[34] = second compound 10 µM, first compound 1 µM
[35] = second compound 10 µM, first compound 3.16 µM
[36] = second compound 10 µM, first compound 10 µM
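Further: spheroids exposed to compounds for 7 days.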

CCc1cc2c(N3CCc4c(cc(Cn5ccnc5)cc4-c4cn(C)nc4C(F)(F)F)C3=O)cc(C)nc2c(OC)n1 + Cc1cccc(N(C)C(=O)C2C(O)CCN2c2nc(C)cc(C(F)(F)F)c2C#N)c1
IC50 (second compound 0.0316 µM): > 10 µM
IC50 (second compound 0.1 µM): > 10 µM
IC50 (second compound 0.316 µM): > 10 µM
IC50 (second compound 1 µM): > 10 µM
IC50 (second compound 3.16 µM): > 10 µM
IC50 (second compound 10 µM): > 10 µM
viability, T/C [1]: 86.5%
viability, T/C [2]: 82%
viability, T/C [3]: 84.8%
viability, T/C [4]: 75.2%
viability, T/C [5]: 83.1%
viability, T/C [6]: 70.1%
viability, T/C [7]: 85.9%
viability, T/C [8]: 86.2%
viability, T/C [9]: 84.6%
viability, T/C [10]: 81.7%
viability, T/C [11]: 78.5%
viability, T/C [12]: 68.1%
viability, T/C [13]: 89.1%
viability, T/C [14]: 83.5%
viability, T/C [15]: 84.3%
viability, T/C [16]: 83.9%
viability, T/C [17]: 77.4%
viability, T/C [18]: 68.7%
viability, T/C [19]: 93.5%
viability, T/C [20]: 92.1%
viability, T/C [21]: 86%
viability, T/C [22]: 79.2%
viability, T/C [23]: 76.1%
viability, T/C [24]: 68%
viability, T/C [25]: 93.2%
viability, T/C [26]: 84.9%
viability, T/C [27]: 88.2%
viability, T/C [28]: 84.5%
viability, T/C [29]: 72.9%
viability, T/C [30]: 75.4%
viability, T/C [31]: 83.9%
viability, T/C [32]: 91%
viability, T/C [33]: 87.5%
viability, T/C [34]: 81.6%
viability, T/C [35]: 75.8%
viability, T/C [36]: 71%

COc1cc2cc(C(=O)CCC(=O)O)sc2cc1OC + COC1C(OC(N)=O)C(O)C(Oc2ccc3c(O)c(NC(=O)c4ccc(O)c(CC=C(C)C)c4)c(=O)oc3c2C)OC1(C)C
IC50 (second compound 0.0316 µM): > 10 µM
IC50 (second compound 0.1 µM): > 10 µM
IC50 (second compound 0.316 µM): > 10 µM
IC50 (second compound 1 µM): > 10 µM
IC50 (second compound 3.16 µM): > 10 µM
IC50 (second compound 10 µM): > 10 µM
viability, T/C [1]: 96.4%
viability, T/C [2]: 97.6%
viability, T/C [3]: 100%
viability, T/C [4]: 93.6%
viability, T/C [5]: 96.8%
viability, T/C [6]: 86.2%
viability, T/C [7]: 100%
viability, T/C [8]: 96.3%
viability, T/C [9]: 102%
viability, T/C [10]: 109%
viability, T/C [11]: 109%
viability, T/C [12]: 86.6%
viability, T/C [13]: 101%
viability, T/C [14]: 101%
viability, T/C [15]: 97.2%
viability, T/C [16]: 103%
viability, T/C [17]: 113%
viability, T/C [18]: 81%
viability, T/C [19]: 109%
viability, T/C [20]: 92.5%
viability, T/C [21]: 95.6%
viability, T/C [22]: 96%
viability, T/C [23]: 104%
viability, T/C [24]: 76.2%
viability, T/C [25]: 100%
viability, T/C [26]: 96.6%
viability, T/C [27]: 95.9%
viability, T/C [28]: 101%
viability, T/C [29]: 113%
viability, T/C [30]: 79.8%
viability, T/C [31]: 96.8%
viability, T/C [32]: 105%
viability, T/C [33]: 111%
viability, T/C [34]: 93.4%
viability, T/C [35]: 87.5%
viability, T/C [36]: 83.4%
